Key:
Experiment in all cases: relative viability (nuclei count vs DMSO), 5 days (fraction); higher = more cells survive
[1] = compound: CCN1C(=O)C2=CC(=C(N=C2N(C1=O)C3CC3)N)C(=O)N + C[C@]1(O)C[C@@H](c2nc(-c3ccc4ccc(-c5ccccc5)nc4c3)c3c(N)nccn32)C1 [Linsitinib] (partner 1 µM)
Outline: (§1)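 One day after seeding in 1536-well plates, lung cancer cell lines were dosed by pin tool. Dosing was either single-drug or a fixed anchor-drug dose plus five library-drug doses (not always all listed) in √10 steps. After 5 days, nuclei were stained in one fix-and-stain step and counted on 4× images, and relative viability is the nuclei count of treated wells over that of vehicle wells, given as the median of duplicate plates.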

[2] = compound: CCN1C(=O)C2=CC(=C(N=C2N(C1=O)C3CC3)N)C(=O)N + C[C@@H](Oc1cc(-c2cnn(C3CCNCC3)c2)cnc1N)c1c(Cl)ccc(F)c1Cl [Crizotinib] (partner 1 µM)
Outline: as §1

[3] = compound: CCN1C(=O)C2=CC(=C(N=C2N(C1=O)C3CC3)N)C(=O)N + COc1cc2c(Oc3ccc(NC(=O)C4(C(=O)Nc5ccc(F)cc5)CC4)cc3F)ccnc2cc1OCCCN1CCOCC1 [Foretinib] (partner 0.25 µM)
Outline: as §1

[4] = compound: CCN1C(=O)C2=CC(=C(N=C2N(C1=O)C3CC3)N)C(=O)N + Cc1nc(NC(=O)N2CCC[C@H]2C(N)=O)sc1-c1ccnc(C(C)(C)C(F)(F)F)c1 [Alpelisib] (partner 2 µM)
Outline: as §1

[5] = compound: CCN1C(=O)C2=CC(=C(N=C2N(C1=O)C3CC3)N)C(=O)N + CS(=O)(=O)N1CCN(Cc2cc3nc(-c4cccc5[nH]ncc45)nc(N4CCOCC4)c3s2)CC1 [Pictilisib] (partner 1 µM)
Outline: as §1

[6] = compound: CCN1C(=O)C2=CC(=C(N=C2N(C1=O)C3CC3)N)C(=O)N + CC(C)C[C@H](NC(=O)[C@H](Cc1ccccc1)NC(=O)c1cnccn1)B(O)O [Bortezomib] (partner 0.002 µM)
Outline: as §1

[7] = compound: CCN1C(=O)C2=CC(=C(N=C2N(C1=O)C3CC3)N)C(=O)N + CC1(C)CCC(c2ccc(Cl)cc2)=C(CN2CCN(c3ccc(C(=O)NS(=O)(=O)c4ccc(N[C@H](CCN5CCOCC5)CSc5ccccc5)c(S(=O)(=O)C(F)(F)F)c4)cc3)CC2)C1 [Navitoclax] (partner 0.5 µM)
Outline: as §1

[8] = compound: CCN1C(=O)C2=CC(=C(N=C2N(C1=O)C3CC3)N)C(=O)N + CS(=O)(=O)CCNCc1ccc(-c2ccc3ncnc(Nc4ccc(OCc5cccc(F)c5)c(Cl)c4)c3c2)o1 [Lapatinib] (partner 2 µM)
Outline: as §1

[9] = compound: CCN1C(=O)C2=CC(=C(N=C2N(C1=O)C3CC3)N)C(=O)N + O=C(c1cc(Cc2n[nH]c(=O)c3ccccc23)ccc1F)N1CCN(C(=O)C2CC2)CC1 [Olaparib] (partner 8 µM)
Outline: as §1

[10] = compound: CCN1C(=O)C2=CC(=C(N=C2N(C1=O)C3CC3)N)C(=O)N
Outline: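 Lung cancer cell lines in 1536-well plates were kept overnight at 37 °C, then pinned with five library-drug doses (not always all listed) spaced by √10 on vehicle-anchored plates. After 5 days without medium change, cells were fixed, permeabilised and Hoechst-stained in one step, imaged at 4×, and nuclei were counted with MetaXpress. Viability is treated-well nuclei divided by vehicle-well nuclei, taken as the median over plates. Plates passed only with control CV below 25% and at least one doubling.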

**Q.** Which relative viability ([1]; first compound 0.253 µM) does the source give for Calu-6 here?
**A.** Its relative viability is 0.924.

**Q.** What about the relative viability ([1]; first compound 0.8 µM) of the same cell line?
**A.** The relative viability was 0.946.

**Q.** And the relative viability ([1]; first compound 2.53 µM)?
**A.** The relative viability was 0.869.

**Q.** And the relative viability ([1]; first compound 8 µM)?
**A.** The relative viability was 0.866.

**Q.** And the relative viability ([2]; first compound 0.253 µM)?
**A.** The relative viability was 0.808.

**Q.** What about the relative viability ([2]; first compound 0.8 µM) of the same cell line?
**A.** The relative viability was 0.81.

**Q.** And the relative viability ([2]; first compound 2.53 µM)?
**A.** Its relative viability is 0.721.

**Q.** And the relative viability ([2]; first compound 8 µM)?
**A.** The relative viability was 0.805.

**Q.** And the relative viability ([3]; first compound 0.253 µM)?
**A.** The relative viability was 0.892.

**Q.** And the relative viability ([3]; first compound 0.8 µM)?
**A.** The relative viability was 0.809.

**Q.** What about the relative viability ([3]; first compound 2.53 µM) of the same cell line?
**A.** The relative viability was 0.845.

**Q.** What about the relative viability ([3]; first compound 8 µM) of the same cell line?
**A.** Its relative viability is 0.803.

**Q.** What about the relative viability ([4]; first compound 0.253 µM) of the same cell line?
**A.** The relative viability was 1.03.

**Q.** What about the relative viability ([4]; first compound 0.8 µM) of the same cell line?
**A.** Its relative viability is 0.876.

**Q.** And the relative viability ([4]; first compound 2.53 µM)?
**A.** Its relative viability is 0.866.

**Q.** And the relative viability ([4]; first compound 8 µM)?
**A.** The relative viability was 0.925.

**Q.** And the relative viability ([5]; first compound 0.253 µM)?
**A.** Its relative viability is 0.925.

**Q.** What about the relative viability ([5]; first compound 0.8 µM) of the same cell line?
**A.** The relative viability was 0.819.

**Q.** What about the relative viability ([5]; first compound 2.53 µM) of the same cell line?
**A.** Its relative viability is 0.923.

**Q.** What about the relative viability ([5]; first compound 8 µM) of the same cell line?
**A.** The relative viability was 1.

**Q.** And the relative viability ([6]; first compound 0.253 µM)?
**A.** The relative viability was 1.

**Q.** And the relative viability ([6]; first compound 0.8 µM)?
**A.** Its relative viability is 0.954.

**Q.** What about the relative viability ([6]; first compound 2.53 µM) of the same cell line?
**A.** Its relative viability is 1.02.

**Q.** What about the relative viability ([6]; first compound 8 µM) of the same cell line?
**A.** The relative viability was 0.958.

**Q.** And the relative viability ([7]; first compound 0.253 µM)?
**A.** The relative viability was 0.828.

**Q.** What about the relative viability ([7]; first compound 0.8 µM) of the same cell line?
**A.** The relative viability was 0.822.

**Q.** What about the relative viability ([7]; first compound 2.53 µM) of the same cell line?
**A.** Its relative viability is 0.826.

**Q.** And the relative viability ([7]; first compound 8 µM)?
**A.** The relative viability was 0.883.

**Q.** What about the relative viability ([8]; first compound 0.253 µM) of the same cell line?
**A.** The relative viability was 1.06.

**Q.** And the relative viability ([8]; first compound 0.8 µM)?
**A.** Its relative viability is 1.05.

**Q.** What about the relative viability ([8]; first compound 2.53 µM) of the same cell line?
**A.** The relative viability was 0.957.

**Q.** And the relative viability ([8]; first compound 8 µM)?
**A.** Its relative viability is 0.997.

**Q.** What about the relative viability ([9]; first compound 0.253 µM) of the same cell line?
**A.** Its relative viability is 0.554.

**Q.** And the relative viability ([9]; first compound 0.8 µM)?
**A.** The relative viability was 0.573.

**Q.** What about the relative viability ([9]; first compound 2.53 µM) of the same cell line?
**A.** Its relative viability is 0.582.

**Q.** And the relative viability ([9]; first compound 8 µM)?
**A.** Its relative viability is 0.566.

**Q.** And the relative viability ([10]; 0.253 µM)?
**A.** Its relative viability is 0.963.

**Q.** And the relative viability ([10]; 0.8 µM)?
**A.** Its relative viability is 1.01.

**Q.** And the relative viability ([10]; 2.53 µM)?
**A.** Its relative viability is 0.902.

**Q.** And the relative viability ([10]; 8 µM)?
**A.** Its relative viability is 0.905.

**Q.** EBC-1 was tested. Which relative viability ([1]; first compound 0.253 µM) did it give?
**A.** Its relative viability is 0.851.

**Q.** What about the relative viability ([1]; first compound 0.8 µM) of the same cell line?
**A.** The relative viability was 0.938.

**Q.** And the relative viability ([1]; first compound 2.53 µM)?
**A.** Its relative viability is 0.808.

**Q.** What about the relative viability ([1]; first compound 8 µM) of the same cell line?
**A.** Its relative viability is 0.886.

**Q.** And the relative viability ([2]; first compound 0.253 µM)?
**A.** Its relative viability is 0.163.

**Q.** And the relative viability ([2]; first compound 0.8 µM)?
**A.** The relative viability was 0.184.

**Q.** And the relative viability ([2]; first compound 2.53 µM)?
**A.** The relative viability was 0.208.

**Q.** What about the relative viability ([2]; first compound 8 µM) of the same cell line?
**A.** Its relative viability is 0.218.

**Q.** And the relative viability ([3]; first compound 0.253 µM)?
**A.** Its relative viability is 0.105.

**Q.** And the relative viability ([3]; first compound 0.8 µM)?
**A.** The relative viability was 0.114.

**Q.** What about the relative viability ([3]; first compound 2.53 µM) of the same cell line?
**A.** The relative viability was 0.104.

**Q.** What about the relative viability ([3]; first compound 8 µM) of the same cell line?
**A.** The relative viability was 0.119.

**Q.** And the relative viability ([4]; first compound 0.253 µM)?
**A.** The relative viability was 0.84.

**Q.** And the relative viability ([4]; first compound 0.8 µM)?
**A.** The relative viability was 0.77.

**Q.** What about the relative viability ([4]; first compound 2.53 µM) of the same cell line?
**A.** Its relative viability is 0.78.

**Q.** And the relative viability ([4]; first compound 8 µM)?
**A.** Its relative viability is 0.834.

**Q.** And the relative viability ([5]; first compound 0.253 µM)?
**A.** The relative viability was 0.35.

**Q.** And the relative viability ([5]; first compound 0.8 µM)?
**A.** The relative viability was 0.352.

**Q.** What about the relative viability ([5]; first compound 2.53 µM) of the same cell line?
**A.** The relative viability was 0.335.

**Q.** And the relative viability ([5]; first compound 8 µM)?
**A.** Its relative viability is 0.494.

**Q.** And the relative viability ([6]; first compound 0.253 µM)?
**A.** Its relative viability is 0.496.

**Q.** And the relative viability ([6]; first compound 0.8 µM)?
**A.** Its relative viability is 0.5.

**Q.** And the relative viability ([6]; first compound 2.53 µM)?
**A.** Its relative viability is 0.489.

**Q.** What about the relative viability ([6]; first compound 8 µM) of the same cell line?
**A.** The relative viability was 0.61.

**Q.** And the relative viability ([7]; first compound 0.253 µM)?
**A.** The relative viability was 0.441.

**Q.** And the relative viability ([7]; first compound 0.8 µM)?
**A.** The relative viability was 0.43.

**Q.** And the relative viability ([7]; first compound 2.53 µM)?
**A.** Its relative viability is 0.451.

**Q.** And the relative viability ([7]; first compound 8 µM)?
**A.** The relative viability was 0.378.

**Q.** What about the relative viability ([8]; first compound 0.253 µM) of the same cell line?
**A.** The relative viability was 0.186.

**Q.** And the relative viability ([8]; first compound 0.8 µM)?
**A.** The relative viability was 0.204.

**Q.** What about the relative viability ([8]; first compound 2.53 µM) of the same cell line?
**A.** Its relative viability is 0.206.

**Q.** And the relative viability ([8]; first compound 8 µM)?
**A.** The relative viability was 0.211.

**Q.** And the relative viability ([9]; first compound 0.253 µM)?
**A.** Its relative viability is 0.7.

**Q.** What about the relative viability ([9]; first compound 0.8 µM) of the same cell line?
**A.** The relative viability was 0.695.

**Q.** And the relative viability ([9]; first compound 2.53 µM)?
**A.** The relative viability was 0.618.

**Q.** And the relative viability ([9]; first compound 8 µM)?
**A.** Its relative viability is 0.777.

**Q.** What about the relative viability ([10]; 0.253 µM) of the same cell line?
**A.** Its relative viability is 0.932.

**Q.** And the relative viability ([10]; 0.8 µM)?
**A.** Its relative viability is 1.02.

**Q.** What about the relative viability ([10]; 2.53 µM) of the same cell line?
**A.** Its relative viability is 0.979.

**Q.** What about the relative viability ([10]; 8 µM) of the same cell line?
**A.** The relative viability was 1.03.
